Measured values: publication PMC3946900 (Pharmaceutical research, 2013)
Like-named read-outs stand apart in the source and are kept apart here. Blank lines part the entries; values can stand above or below the compound they belong to.

Tests used:
P-gp = assay: Compartmental models of apical efflux fit to permeability data
P-gp (mdr1) = settings: cited from earlier work
[1] = target: P-glycoprotein (P-gp, ABCB1; MDR1) (Homo sapiens, UniProt P08183); settings: MDCK-MDR1 cells with and without CsA
[2] = 5C model, asa = 1, lipid content = 10%

P-glycoprotein (P-gp, ABCB1; MDR1), sequence (P08183 whole entry): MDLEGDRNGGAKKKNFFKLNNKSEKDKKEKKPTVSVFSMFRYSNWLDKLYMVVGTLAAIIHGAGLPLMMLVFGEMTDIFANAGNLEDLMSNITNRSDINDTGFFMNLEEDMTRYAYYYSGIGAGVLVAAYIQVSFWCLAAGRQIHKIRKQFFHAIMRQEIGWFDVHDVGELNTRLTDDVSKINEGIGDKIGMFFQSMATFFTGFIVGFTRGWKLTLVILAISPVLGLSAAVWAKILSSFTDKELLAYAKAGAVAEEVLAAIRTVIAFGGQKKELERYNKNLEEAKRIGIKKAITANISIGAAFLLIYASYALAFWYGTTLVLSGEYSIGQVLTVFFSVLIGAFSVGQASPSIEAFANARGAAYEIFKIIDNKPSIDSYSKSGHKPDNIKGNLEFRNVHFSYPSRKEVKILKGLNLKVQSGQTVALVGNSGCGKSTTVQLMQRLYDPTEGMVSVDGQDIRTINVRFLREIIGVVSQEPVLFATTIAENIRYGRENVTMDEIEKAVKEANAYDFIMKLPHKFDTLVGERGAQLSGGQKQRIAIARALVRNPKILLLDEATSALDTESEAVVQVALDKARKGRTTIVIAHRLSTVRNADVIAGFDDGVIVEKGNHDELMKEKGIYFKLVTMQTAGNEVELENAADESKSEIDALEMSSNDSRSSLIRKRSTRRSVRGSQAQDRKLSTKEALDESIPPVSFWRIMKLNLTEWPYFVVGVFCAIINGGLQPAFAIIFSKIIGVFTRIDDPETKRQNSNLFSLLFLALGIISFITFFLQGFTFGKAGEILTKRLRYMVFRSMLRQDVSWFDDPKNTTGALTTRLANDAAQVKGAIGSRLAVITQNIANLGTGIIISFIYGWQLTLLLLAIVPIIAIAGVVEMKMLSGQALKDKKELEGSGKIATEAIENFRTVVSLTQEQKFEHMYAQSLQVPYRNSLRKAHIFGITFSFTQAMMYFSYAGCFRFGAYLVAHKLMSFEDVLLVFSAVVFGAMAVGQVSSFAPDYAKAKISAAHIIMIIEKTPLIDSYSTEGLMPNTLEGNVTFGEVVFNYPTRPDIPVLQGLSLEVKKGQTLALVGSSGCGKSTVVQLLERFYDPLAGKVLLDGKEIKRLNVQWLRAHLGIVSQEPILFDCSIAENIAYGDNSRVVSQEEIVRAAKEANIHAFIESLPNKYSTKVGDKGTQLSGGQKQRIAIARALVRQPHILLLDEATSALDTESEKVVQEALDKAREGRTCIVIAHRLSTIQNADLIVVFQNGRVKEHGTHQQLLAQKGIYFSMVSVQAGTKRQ

- CLae (active apical efflux clearance) (P-gp): 0.021 µL/min
Compound: Nc1cc(N2CCCCC2)nc(N)[n+]1[O-] [Minoxidil]

Compound: Cc1nccn1CC1CCc2c(c3ccccc3n2C)C1=O (stereo not shown) [Ondansetron]
- Brain Conc. Ratio mdr1(−/−)/mdr1(+/+) (P-gp (mdr1); mice, brain): 4.0
- Liver Conc. Ratio mdr1(−/−)/mdr1(+/+) (P-gp (mdr1); mice, liver): 0.9

- CLae (active apical efflux clearance) (P-gp; [2]): 0.030 µL/min
- CLi (diffusion clearance into an explicit membrane compartment) (P-gp; [2]): 3.5 µL/min
Compound: O=C(O)C[C@H](O)C[C@H](O)/C=C/c1c(C2CC2)nc2ccccc2c1-c1ccc(F)cc1 [Pitavastatin]
- Brain Conc. Ratio mdr1(−/−)/mdr1(+/+) (P-gp (mdr1); mice, brain): 1.3
- Liver Conc. Ratio mdr1(−/−)/mdr1(+/+) (P-gp (mdr1); mice, liver): 0.88

Compound: CO[C@H]1C[C@H](O[C@@H]2/C(C)=C/C[C@@H]3C[C@@H](C[C@]4(CC[C@H](C)[C@@H](C5CCCCC5)O4)O3)OC(=O)[C@@H]3C=C(C)/C(=N/O)[C@H]4OC/C(=C\C=C\[C@@H]2C)[C@]43O)O[C@@H](C)[C@@H]1O [Selamectin]
- Brain Conc. Ratio mdr1(−/−)/mdr1(+/+) (P-gp (mdr1); mouse, in vivo): 4.9
- Liver Conc. Ratio mdr1(−/−)/mdr1(+/+) (P-gp (mdr1); mouse, in vivo): 0.5

Compound: C=CC[C@@H]1/C=C(\C)C[C@H](C)C[C@H](OC)[C@H]2O[C@@](O)(C(=O)C(=O)N3CCCC[C@H]3C(=O)O[C@H](/C(C)=C/[C@@H]3CC[C@@H](O)[C@H](OC)C3)[C@H](C)[C@@H](O)CC1=O)[C@H](C)C[C@@H]2OC [Tacrolimus]
- Brain Conc. Ratio mdr1(−/−)/mdr1(+/+) (P-gp (mdr1); mouse, in vivo): 6.0
- Liver Conc. Ratio mdr1(−/−)/mdr1(+/+) (P-gp (mdr1); mouse, in vivo): 1.7

Compound: Cc1nnc2n1-c1sc(CCC(=O)N3CCOCC3)cc1C(c1ccccc1Cl)=NC2 [Apafant]
- Brain Conc. Ratio mdr1(−/−)/mdr1(+/+) (P-gp (mdr1); mice, brain): 73.6
- Liver Conc. Ratio mdr1(−/−)/mdr1(+/+) (P-gp (mdr1); mice, liver): 4.5

Compound: Cc1c(O)cccc1C(=O)N[C@@H](CSc1ccccc1)[C@H](O)CN1C[C@H]2CCCC[C@H]2C[C@H]1C(=O)NC(C)(C)C [Nelfinavir]
- Brain Conc. Ratio mdr1(−/−)/mdr1(+/+) (P-gp (mdr1); mice, brain): 16.1
- Liver Conc. Ratio mdr1(−/−)/mdr1(+/+) (P-gp (mdr1); mice, liver): 3.0

Compound: C/C=C/C[C@@H](C)C(=O)[C@H]1C(=O)N[C@@H](C(C)C)C(=O)N(C)CC(=O)N(C)[C@@H](CC(C)C)C(=O)N[C@@H](C(C)C)C(=O)N(C)[C@@H](CC(C)C)C(=O)N[C@@H](C)C(=O)N[C@H](C)C(=O)N(C)[C@@H](CC(C)C)C(=O)N(C)[C@@H](CC(C)C)C(=O)N(C)[C@@H](C(C)C)C(=O)N1C [SDZ PSC 833]
- Brain Conc. Ratio mdr1(−/−)/mdr1(+/+) (P-gp (mdr1); mice, brain): 2.1
- Liver Conc. Ratio mdr1(−/−)/mdr1(+/+) (P-gp (mdr1); mice, liver): 0.9

Compound: CN(C)C(=O)C(CCN1CCC(O)(c2ccc(Cl)cc2)CC1)(c1ccccc1)c1ccccc1 [Loperamide]
- permeability (qualitative) [1]: high permeability

Compound: CC[C@]1(O)C[C@@H]2CN(CCc3c([nH]c4ccccc34)[C@@](C(=O)OC)(c3cc4c(cc3OC)N(C)[C@H]3[C@@](O)(C(=O)OC)[C@H](OC(C)=O)[C@]5(CC)C=CCN6CC[C@]43[C@@H]65)C2)C1 [Vinblastine]
- Brain Conc. Ratio mdr1(−/−)/mdr1(+/+) (P-gp (mdr1); mice, brain): 22.4
- Liver Conc. Ratio mdr1(−/−)/mdr1(+/+) (P-gp (mdr1); mice, liver): 1.8

Compound: CN(C(=O)C(c1ccccc1)c1ccccc1)[C@H](CN1CC[C@H](O)C1)c1ccccc1 [Asimadoline]
- Brain Conc. Ratio mdr1(−/−)/mdr1(+/+) (P-gp (mdr1); mice, brain): 9.1
- Liver Conc. Ratio mdr1(−/−)/mdr1(+/+) (P-gp (mdr1); mice, liver): 1.1
